Measurements from article PMC12562324, “Surfactin Structural Variants Differentially Modulate Plant Immune Responses” (Biomolecules, 2025).

Assays:
[1] = system: Arabidopsis thaliana nia1nia2 double mutant roots; assay: Srf-induced NO in nitrate reductase double mutant roots; type: cell-based; conditions: fluorescence 40 min after Srf treatment, compared with Col-0; n = 12 from three independent experiments; Figure 3D
Protocol: For the detection of intracellular NO, roots were processed as described above and 200 µL sterile water was replaced by 200 µL 5 μM DAF-DA in a buffered solution (10 mM Tris/HCl, pH = 7.4). Roots were incubated at room temperature for 1 h in the absence of light and then washed 3 times with Tris/HCl (10 mM, pH = 7.4). The fluorescence emitted by DAF-DA was detected by excitation at 495 nm and emission at 515 nm. Experiments where NO was measured after pretreatment with the calcium channel blocker or calcium chelator included an additional step where LaCl3 (10 mM; Merck Chemicals SA, Hoeilaart, Belgium) or EGTA (1 mM; Merck Chemicals SA, Hoeilaart, Belgium) was added three minutes before treatments. Data were processed as described above for ROS. For NO measurements in protoplasts, the suspension was incubated in the same conditions before being distributed (50 µL) in microplate wells and treated with the CLPs at a 10 µM final concentration or with 0.1% DMSO as a mock.

[2] = system: Botrytis cinerea; assay: ISR against B. cinerea in myb72-2 knockout mutant; type: in vivo; conditions: 10 µM Srf or mock (0.1% EtOH) before B. cinerea infection; n = 30 from two independent experiments; Figure 6C
Protocol: Plants were grown for 4 weeks in hydroponic conditions in Araponics systems containing a nutrient solution (0.25% (v/v) FLORAMICRO®, 0.25% (v/v) FLORABLOOM®, 0.25% (v/v) FLORAGRO®; General Hydroponics®, in volume ratio 1:1:1, as recommended by the manufacturer), with a photoperiod of 12 h and a temperature of 22 °C. Plants were then transferred into 10 mL vials filled with fresh nutrient solution and treated at the root level with CLPs or ethanol (mock treatment) to obtain final concentrations of 10 µM and 0.1%, respectively. After incubation for 24 h, plants were inoculated with Botrytis cinerea (Helotiales: Sclerotiniaceae) as the conidia solution. Spores were collected from B. cinerea grown on PDA plates for 4 weeks using a solution composed of 1.75 g/L KH2PO4; 0.74 g/L MgSO4; 4 g/L glucose, and 0.02% (v/v) Tween 20. After spore collection, the concentration was adjusted to 5 × 10^5 spores per mL, and spores were incubated at 30 °C for eight hours. Inoculation was conducted by inoculating a drop of 3 µL of conidia solution onto seven leaves per plant and fifteen plants per treatment. The number of spreading lesions was evaluated 96 h post infection.

[3] = system: MYB72; assay: Coumarin pathway reporter line pMYB72:GFP-GUS; type: cell-based, Arabidopsis thaliana; conditions: 10 µM Srf, 20 min post treatment, vs mock; n = 9 from three independent experiments; p < 0.05; Figure 6A
Protocol: (§1) Seedlings of the Arabidopsis thaliana reporter lines pMYB72:GFP-GUS and pBGLU42:GFP-GUS were germinated and cultivated for seven days under the aforementioned conditions. Uniform plantlets were then transferred to 96-well optical bottom black microplates (Greiner 96 µClear, Thermo Fisher Scientific, Hampton, VA, USA). Each well contained 150 µL of the hydroponic solution. Following transfer, the microplates were sealed and incubated in a growth chamber under controlled conditions (22 °C with a 12 h photoperiod). On the fifth day of this incubation, the plates were treated by adding 150 µL of either the CLP solution or a mock control to each well. Fluorescence measurements were subsequently acquired using a Spark microplate reader and configured with an excitation wavelength of 485 nm and an emission wavelength of 530 nm. Data were collected with nine measurement points acquired per well to ensure robustness.

[4] = system: BGLU42; assay: Coumarin pathway reporter line pBGLU42:GFP-GUS; type: cell-based, Arabidopsis thaliana; conditions: 10 µM Srf, 20 min post treatment, vs mock; n = 12 from three independent experiments; p < 0.05; Figure 6B
Protocol: as §1

surfactin [Srf]
NO production in nia1nia2 double mutant roots [1]: fully conserved induction of NO production
ISR elicitor potential in myb72-2 knockout mutant compared to wild-type Col-0 [2]: fully conserved
MYB72 expression in roots of reporter line (GFP fluorescence) [3]: significant upregulation
BGLU42 expression in roots of reporter line (GFP fluorescence) [4]: significant upregulation
